Assay results published in article PMC5541792, “Simultaneous Determination of 11 Compounds in Gualou Guizhi Granule and Pharmacokinetics Study by UPLC-MS/MS” (Journal of Analytical Methods in Chemistry, 2017).

What was measured:
[1] = Stability of analytes in rat plasma samples (method validation); format: in vitro ADME; conditions: n = 6; for Autosampler stability (24 h) Mean: 4°C for 24 h; for Stability (24 h at room temperature) Mean: 25°C for 24 h; for Freeze-thaw stability (3 cycles) Mean: three freeze-thaw cycles at −80°C
Description: Stability of the analytes from plasma samples was performed by determining three different concentrations (low, middle, and high samples) in six replicates under different conditions. It included short-term stability which was assessed by keeping samples at room temperature (25°C) for 24 h, stability which was measured using samples stored at 4°C for 24 h, and freeze-thaw stability that was determined after three freeze-thaw cycles at −80°C.

[2] = Pharmacokinetic study in rats after oral administration of GLGZG (UPLC-MS/MS of plasma); format: in vivo, rat; conditions: for AUC(0–∞) / Tmax / MRT inf / half-life / Vd/F: rat plasma, male SD rats, oral GLGZG 3.6 g·(kg·day)^−1, n = 6; for MRT inf: read-out: MRT(0–∞) (converted); for half-life: read-out: T 1/2z; for Vd/F: read-out: Vz/F; for Plasma concentration-time behaviour (in words): rat plasma after oral GLGZG
Description: Chromatographic separation was performed on an Waters CORTECS C18 (2.1 × 100 mm, 1.6 μm) with the column temperature at 45°C. The mobile phase was composed of 0.1% formic acid in water (A) and acetonitrile (B) with a gradient program (0–0.5 min from 8% to 10% B; 0.5–2.5 min from 10% to 15% B; 2.5–4.0 min from 15% to 60% B; 4.0–5.0 min from 60% to 95% B; 5.0–6.5 min 95% B). The flow rate was 0.25 mL/min and the injection volume was 1 μL.
Mass spectrometry was operated using a Waters (Milford, MA) Xevo TQMS with an electrospray ion source (ESI) in the negative ion multiple reaction monitoring (MRM) mode. The other detailed MS parameters were as follows: drying gas: N2 (purity of 99.9%), 15 L/min, nebulizing gas: 50 L/min, capillary voltage: 2.5 kv.
Plasma samples (100 μL of plasma) and IS working solutions (10 μL of swertiamarin, kaempferol-3-O-rutinoside, and ginsenoside Rb1) were combined and briefly vortex-mixed for 3 min followed by the addition of 4-fold acetonitrile. Then the mixture was centrifuged at 12000 rpm for 10 min. The supernatant was transferred to a clean tube and concentrated up to dryness; the residue was dissolved in 100 μL 50% methanol. Finally, 1 μL aliquot was injected into UPLC-MS/MS system for analysis.
Six male SD rats, weighing 250 ± 20 g, were provided by Experimental Animal Research Center of Fujian TCM University (Fuzhou, China). And they were housed at controlled environmental conditions (temperature: 23 ± 2°C, relative humidity: 55 ± 10%) with free access to standard laboratory food and water. The rats were fasted for 12 h but with access to water before being given GLGZG (3.6 g·(kg·day)^−1). Blood samples of 0.3 mL were collected in heparin containing tubes from epicanthic veins of rats by capillary tube before dose (0 h) and at 5 min, 10 min, 20 min, 0.5 h, 1 h, 1.5 h, 2 h, 3 h, 6 h, 9 h, and 12 h. Then they were centrifuged at 12000 rpm for 10 min. The supernatant liquor was collected and frozen at −20°C until use.
The validated UPLC-MS/MS method was successfully applied to the PK studies of eleven analytes following oral administration of GLGZG to individual male rats (n = 6). The main pharmacokinetic parameters were summarized in Table 8 and the mean plasma concentration-time profiles of the eleven analytes were illustrated in Figure 3.

[3] = middle QC nominal concentration

Structure (SMILES) | Autosampler stability (24 h) Mean ([1]; high QC nominal concentration) [%] | Autosampler stability (24 h) Mean ([1]; low QC nominal concentration) [%] | Autosampler stability (24 h) Mean [1, 3] [%] | Stability (24 h at room temperature) Mean ([1]; high QC nominal concentration) [%] | Stability (24 h at room temperature) Mean ([1]; low QC nominal concentration) [%] | Stability (24 h at room temperature) Mean [1, 3] [%] | Freeze-thaw stability (3 cycles) Mean ([1]; high QC nominal concentration) [%] | Freeze-thaw stability (3 cycles) Mean ([1]; low QC nominal concentration) [%] | Freeze-thaw stability (3 cycles) Mean [1, 3] [%] | AUC(0–∞) [2] [mg·L/min] | Tmax [2] [min] | MRT inf [2] [h] | half-life [2] [min] | Vd/F [2] [L/kg] | Plasma concentration-time behaviour (in words) [2]
CC12CC(O)C3CC1(OC1OC(CO)C(O)C(O)C1O)C3(COC(=O)c1ccccc1)C(=O)O2 (stereo not drawn) [Albiflorin, albiflorin] | 107.72 | 97.93 | 111.49 | 108.45 | 94.78 | 93.66 | 98.89 | 99.77 | 108.14 | 1263.37 ± 306.91 | 60 | 3.59 | 128 ± 35.7 | 2.67 ± 0.87 | 
CC1(C)[C@@H](O)CC[C@]2(C)[C@H]3C(=O)C=C4[C@@H]5C[C@@](C)(C(=O)O)CC[C@]5(C)CC[C@@]4(C)[C@]3(C)CC[C@@H]12 [Glycyrrhetinic acid, glycyrrhetinic acid] |  |  |  |  |  |  |  |  |  | 2041.10 ± 706.58 | 600 | 11.8 | 132 ± 28.3 |  | 
CC1(C)[C@@H](O[C@H]2O[C@H](C(=O)O)[C@@H](O)[C@H](O)[C@H]2O[C@@H]2O[C@H](C(=O)O)[C@@H](O)[C@H](O)[C@H]2O)CC[C@]2(C)[C@H]3C(=O)C=C4[C@@H]5C[C@@](C)(C(=O)O)CC[C@]5(C)CC[C@@]4(C)[C@]3(C)CC[C@@H]12 [Glycyrrhizic acid, glycyrrhizic acid] |  | 97.71 | 92.82 | 94.94 | 96.05 | 92.18 | 98.20 | 98.31 | 108.78 | 1262.61 ± 158.73 | 54 | 4.4 | 172 ± 33.7 | 3.92 ± 1.44 | double-peak phenomenon
O=C(/C=C/c1ccc(O)cc1)c1ccc(O)cc1O [Isoliquiritigenin, isoliquiritigenin] | 108.30 | 106.19 | 91.71 |  | 99.77 | 93.66 | 109.21 | 99.28 | 107.70 | 8.52 ± 0.98 | 30 | 4.76 | 204 ± 40.5 | 700 ± 187 | low in the blood
O=C(/C=C/c1ccc(O[C@@H]2O[C@H](CO)[C@@H](O)[C@H](O)[C@H]2O)cc1)c1ccc(O)cc1O [Isoliquiritin, isoliquiritin] | 95.62 |  | 97.14 |  |  | 99.28 | 108.88 | 98.98 | 94.03 | 27.17 ± 2.69 | 28.3 | 5.66 | 276 ± 51.9 | 297 ± 70 | 
O=C1C[C@@H](c2ccc(O)cc2)Oc2cc(O)ccc21 [Liquiritigenin, liquiritigenin] | 97.16 | 98.45 | 93.53 | 97.03 |  |  |  |  |  | 20.38 ± 4.30 | 26.7 | 4.92 | 232 ± 28.6 | 341 ± 73.6 | 
O=C1C[C@@H](c2ccc(O[C@@H]3O[C@H](CO)[C@@H](O)[C@H](O)[C@H]3O)cc2)Oc2cc(O)ccc21 [Liquiritin, liquiritin] | 90.84 |  | 92.30 | 106.73 | 95.70 |  | 97.91 | 101.75 | 109.75 | 54.87 ± 14.40 |  | 5.93 | 309 ± 66.4 | 167 ± 35.9 | 
C[C@@]12C[C@@]3(O)O[C@@H](O1)[C@]1(COC(=O)c4ccccc4)[C@H]3C[C@@]12O[C@@H]1O[C@H](CO)[C@@H](O)[C@H](O)[C@H]1O [Paeoniflorin, paeoniflorin] | 113.81 | 103.46 | 98.29 | 109.75 | 105.66 | 91.25 |  | 97.71 | 92.82 | 904.73 ± 317.76 | 80 | 3.93 | 143 ± 30.1 | 6.31 ± 1.63 | 
